In data set [1] the target is T1, IRAK4 (Homo sapiens, UniProt Q9NWZ3).
T1 construct: endogenous in cells; host or cells: OCI-LY10
T1 sequence (Q9NWZ3 1-460): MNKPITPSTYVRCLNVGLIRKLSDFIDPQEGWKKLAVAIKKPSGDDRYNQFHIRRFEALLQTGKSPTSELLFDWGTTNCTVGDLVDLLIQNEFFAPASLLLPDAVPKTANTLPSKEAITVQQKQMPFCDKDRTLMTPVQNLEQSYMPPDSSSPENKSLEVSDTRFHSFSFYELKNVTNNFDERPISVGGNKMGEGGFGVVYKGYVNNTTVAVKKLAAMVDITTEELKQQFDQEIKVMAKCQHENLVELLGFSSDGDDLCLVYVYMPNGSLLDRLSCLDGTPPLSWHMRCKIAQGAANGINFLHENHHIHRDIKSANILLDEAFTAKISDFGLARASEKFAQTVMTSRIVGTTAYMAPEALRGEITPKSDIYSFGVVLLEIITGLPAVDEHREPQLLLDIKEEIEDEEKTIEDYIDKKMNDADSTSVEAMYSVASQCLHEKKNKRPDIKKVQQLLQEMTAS
The experiment in a line: IRAK4 MSD degradation in OCI-LY10. The class given is cell-based. The following applies: OCI-LY10 cells, 24 hrs, Meso Scale Discovery. Summed up: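 Remaining IRAK4 protein measured by Meso Scale Discovery electrochemiluminescence sandwich assay on lysates of OCI-LY10 cells. Cells were exposed for 4 to 24 hours (37° C., 5% CO2) to eight 1:3-diluted concentrations starting at 1 to 10 μM. DC50 derived by three-parameter logistic fitting.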

Data set [2] in a line: Rodent pharmacokinetics (rat PK). Type of data set: in vivo. The following applies: po, dosed intravenously or orally by gavage, plasma, read-out: F % (bioavailability). The method in brief:
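F % is reported as a letter code: A for ≥5%, B for ≤5%. It was derived from rat plasma profiles after intravenous or oral gavage dosing, with jugular vein sampling from predose to 24 h (5 min point for IV only).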

Molecules are shown by their SMILES.

The DC50 is the concentration at which degradation of the target reaches its halfway point. A higher DC50 goes with a less potent degrader. What is called bioavailability is dose-corrected exposure relative to a reference, in per cent.

`Cn1c(=O)n(C2CCC(=O)NC2=O)c2cccc([C@@H]3CCN(C[C@H]4CC[C@H](n5cc6cc(NC(=O)c7cncc(C(F)(F)F)n7)c(S(C)(=O)=O)cc6n5)CC4)C[C@H]3F)c21` (stereo partly drawn) [I-346] showed a DC50 in data set [1] of under 0.01 µM. In data set [2], the bioavailability is at most 5%.

Turning to `COc1ccc2c(c1[C@@H]1CCN(C[C@H]3CC[C@H](n4cc5cc(NC(=O)c6cncc(C(F)(F)F)n6)ccc5n4)CC3)C[C@H]1F)n(C)c(=O)n2C1CCC(=O)NC1=O` (stereo partly drawn) [I-347], the DC50 in data set [1] is under 0.01 µM. Further, the bioavailability in data set [2] was at least 5%.

In turn, `COc1ccc2c(c1[C@H]1CCN(C[C@H]3CC[C@H](n4cc5cc(NC(=O)c6cncc(C(F)(F)F)n6)ccc5n4)CC3)C[C@@H]1F)n(C)c(=O)n2C1CCC(=O)NC1=O` (stereo partly drawn) [I-352] came in with a DC50 in data set [1] of under 0.01 µM. In data set [2], the bioavailability is at most 5%.

`COc1cc(NC(=O)c2cncc(C(F)(F)F)n2)cc2cn([C@H]3CC[C@H](CN4CC[C@@H](c5cccc6c5n(C)c(=O)n6C5CCC(=O)NC5=O)[C@H](F)C4)CC3)nc12` (stereo partly drawn) [I-355] gave a DC50 in data set [1] of under 0.01 µM. Also, the bioavailability in data set [2] is at most 5%.

Consider `Cn1c(=O)n(C2CCC(=O)NC2=O)c2cccc([C@@H]3CCN(C[C@H]4CC[C@H](n5cc6cc(NC(=O)c7cncc(C(F)(F)F)n7)cc(F)c6n5)CC4)C[C@H]3F)c21` (stereo partly drawn) [I-356], for which the DC50 in data set [1] was under 0.01 µM. Further, the bioavailability in data set [2] is at most 5%.

In the case of `Cc1cncc(C(=O)Nc2cc3cn([C@H]4CC[C@H](CN5CCC6(CCN(c7cccc8c7n(C)c(=O)n8C7CCC(=O)NC7=O)CC6)C(F)(F)C5)CC4)nc3cc2C(C)(C)O)c1` (stereo partly drawn) [I-361], the DC50 in data set [1] is under 0.01 µM. Further, in data set [2], the bioavailability was at most 5%.

For the compound `Cn1c(=O)n(C2CCC(=O)NC2=O)c2cccc(N3CCC4(CCN(C[C@H]5CC[C@H](c6nc7cc(C(C)(C)O)c(NC(=O)c8cncc(C#N)c8)cc7s6)CC5)CC4(F)F)CC3)c21` (stereo partly drawn) [I-364], in data set [1], the DC50 lay within 0.1 to 0.2 µM. The bioavailability in data set [2] is at most 5%.

Take `Cn1c(=O)n(C2CCC(=O)NC2=O)c2cccc(N3CCC4(CCN(C[C@H]5CC[C@H](n6cc7cc(NC(=O)c8cncc(C(F)(F)F)c8)c(C(C)(C)O)cc7n6)CC5)CC4(F)F)CC3)c21` (stereo partly drawn) [I-365]: the DC50 in data set [1] is under 0.01 µM. In addition, the bioavailability in data set [2] was at least 5%.

In data set [1], `Cn1c(=O)n(C2CCC(=O)NC2=O)c2cccc(N3CC4(CCN(C[C@H]5CC[C@H](n6cc7cc(NC(=O)c8cncc(C#N)c8)c(C(C)(C)O)cc7n6)CC5)CC4(F)F)C3)c21` (stereo partly drawn) [I-366] displayed a DC50 of under 0.01 µM. Further, the bioavailability in data set [2] is at most 5%.

Consider `Cn1c(=O)n(C2CCC(=O)NC2=O)c2cccc(N3CC4(CCN(C[C@H]5CC[C@H](c6nc7cc(C(C)(C)O)c(NC(=O)c8cncc(C#N)c8)cc7s6)CC5)CC4(F)F)C3)c21` (stereo partly drawn) [I-367], for which the DC50 in data set [1] fell in the range of 0.01 to 0.1 µM. For the same compound, in data set [2], the bioavailability is at least 5%.

For `Cn1c(=O)n(C2CCC(=O)NC2=O)c2cccc(N3CC4(CCN(C[C@H]5CC[C@H](n6cc7cc(NC(=O)c8cncc(C(F)(F)F)c8)c(C(C)(C)O)cc7n6)CC5)CC4(F)F)C3)c21` (stereo partly drawn) [I-373], the DC50 in data set [1] was under 0.01 µM. In addition, in data set [2], the bioavailability is at most 5%.

On to `COc1cc(NC(=O)c2cncc(C(F)(F)F)n2)cc2cn([C@H]3CC[C@H](CN4CC[C@@H](c5cccc6c5n(C)c(=O)n6C5CCC(=O)NC5=O)C(F)(F)C4)CC3)nc12` (stereo partly drawn) [I-374], for which the DC50 in data set [1] is under 0.01 µM. Moreover, in data set [2], the bioavailability was at most 5%.

For the compound `Cn1c(=O)n(C2CCC(=O)NC2=O)c2cccc([C@@H]3CCN(C[C@H]4CC[C@H](n5cc6cc(NC(=O)c7cncc(C(F)(F)F)n7)cc(F)c6n5)CC4)CC3(F)F)c21` (stereo partly drawn) [I-375], the DC50 in data set [1] was under 0.01 µM. The bioavailability in data set [2] was at most 5%.

`Cn1c(=O)n(C2CCC(=O)NC2=O)c2cccc([C@@H]3CCN(C[C@H]4CC[C@H](n5cc6cc(NC(=O)c7cncc(C(F)F)n7)ccc6n5)CC4)CC3(F)F)c21` (stereo partly drawn) [I-384] came in with a DC50 in data set [1] of under 0.01 µM. Besides, the bioavailability in data set [2] is at most 5%.

In data set [1], `Cn1c(=O)n(C2CCC(=O)NC2=O)c2cccc(N3CCC4(CCN(C[C@H]5CC[C@H](n6cc7cc(NC(=O)c8cncc(F)c8)c(C(C)(C)O)cc7n6)CC5)CC4(F)F)CC3)c21` (stereo partly drawn) [I-386] came in with a DC50 of under 0.01 µM. Moreover, the bioavailability in data set [2] is at least 5%.

`Cn1c(=O)n(C2CCC(=O)NC2=O)c2cccc(N3CCC4(CCN(C[C@H]5CC[C@H](n6cc7cc(NC(=O)c8cncc(Cl)c8)c(C(C)(C)O)cc7n6)CC5)CC4(F)F)CC3)c21` (stereo partly drawn) [I-387] registered a DC50 in data set [1] of under 0.01 µM. Further, the bioavailability in data set [2] is at most 5%.

`Cn1c(=O)n(C2CCC(=O)NC2=O)c2ccc(F)c(N3CC4(CCN(C[C@H]5CC[C@H](n6cc7cc(NC(=O)c8cncc(C#N)c8)c(C(C)(C)O)cc7n6)CC5)CC4(F)F)C3)c21` (stereo partly drawn) [I-388] showed a DC50 in data set [1] of under 0.01 µM. Besides, the bioavailability in data set [2] is at most 5%.

Take `Cn1c(=O)n(C2CCC(=O)NC2=O)c2ccc(F)c(N3CCC4(CCN(C[C@H]5CC[C@H](n6cc7cc(NC(=O)c8cncc(C#N)c8)c(C(C)(C)O)cc7n6)CC5)CC4(F)F)CC3)c21` (stereo partly drawn) [I-393]: the DC50 in data set [1] is under 0.01 µM. In data set [2], the bioavailability was at most 5%.

In turn, `COc1cc(C(=O)Nc2ccc3nn([C@H]4CC[C@H](CN5CC[C@@H](c6cccc7c6n(C)c(=O)n7C6CCC(=O)NC6=O)[C@H](F)C5)CC4)cc3c2)nc(C(F)(F)F)c1` (stereo partly drawn) [I-394] came in with a DC50 in data set [1] of over 0.2 µM. The bioavailability in data set [2] was at least 5%.

With `Cc1cc(C(=O)Nc2ccc3nn([C@H]4CC[C@H](CN5CC[C@@H](c6cccc7c6n(C)c(=O)n7C6CCC(=O)NC6=O)[C@H](F)C5)CC4)cc3c2)nc(C(F)(F)F)c1` (stereo partly drawn) [I-395], in data set [1], the DC50 is over 0.2 µM. Also, in data set [2], the bioavailability is at least 5%.

`COc1cc2nn([C@H]3CC[C@H](CN4CCC5(CCN(c6cccc7c6n(C)c(=O)n7C6CCC(=O)NC6=O)CC5)C(F)(F)C4)CC3)cc2cc1C(=O)Nc1cccc(C(F)(F)F)n1` (stereo partly drawn) [I-396] yielded a DC50 in data set [1] of over 0.2 µM. The bioavailability in data set [2] was at most 5%.

For `CC(C)(O)c1cc2nn([C@H]3CC[C@H](CN4CCC5(CCN(c6cccc7c(N8CCC(=O)NC8=O)cncc67)CC5)C(F)(F)C4)CC3)cc2cc1NC(=O)c1cncc(C#N)c1` [I-400], the DC50 in data set [1] is under 0.01 µM. In addition, the bioavailability in data set [2] is at most 5%.

`Cn1nc(N2CCC(=O)NC2=O)c2cccc(N3CCC4(CCN(C[C@H]5CC[C@H](n6cc7cc(NC(=O)c8cncc(C#N)c8)c(C(C)(C)O)cc7n6)CC5)CC4(F)F)CC3)c21` [I-404] had a DC50 in data set [1] of 0.01 to 0.1 µM. Also, the bioavailability in data set [2] is at most 5%.

Turning to `Cn1c(=O)n(C2CCC(=O)NC2=O)c2cccc([C@@H]3CCN(C[C@H]4CC[C@H](c5nc6cc(C(C)(C)O)c(NC(=O)c7cncc(C#N)c7)cc6o5)CC4)C[C@H]3F)c21` (stereo partly drawn) [I-405], in data set [1], the DC50 was in the range of 0.01 to 0.1 µM. Further, the bioavailability in data set [2] is at most 5%.

Regarding `Cn1c(=O)n(C2CCC(=O)NC2=O)c2cccc(N3CCC4(CCN(C[C@H]5CC[C@H](c6nc7cc(C(C)(C)O)c(NC(=O)c8cncc(C#N)c8)cc7o6)CC5)CC4(F)F)CC3)c21` (stereo partly drawn) [I-406], the DC50 in data set [1] was over 0.2 µM. The bioavailability in data set [2] is at most 5%.

`Cn1c(=O)n(C2CCC(=O)NC2=O)c2cccc(N3CCC4(CCN(C[C@H]5CC[C@H](c6nc7cc(C(C)(C)O)c(NC(=O)c8cccc(C(F)(F)F)n8)cc7s6)CC5)CC4(F)F)CC3)c21` (stereo partly drawn) [I-407] had a DC50 in data set [1] of 0.01 to 0.1 µM. Besides, the bioavailability in data set [2] was at most 5%.

As for `Cn1c(=O)n(C2CCC(=O)NC2=O)c2cccc(N3CCC4(CCN(C[C@H]5CC[C@H](c6nc7cc(C(C)(C)O)c(NC(=O)c8cccc(C(F)(F)F)n8)cc7o6)CC5)CC4(F)F)CC3)c21` (stereo partly drawn) [I-408], the DC50 in data set [1] was over 0.2 µM. The bioavailability in data set [2] was at least 5%.
